For 14 compounds, IC50 results are on record in US11332459B2 (TEIJIN PHARMA LIMITED, priority 2017, dated 2022).

The target of the experiment is T1, human TRPC6 (Homo sapiens, UniProt Q9Y210).
T1 construct: expressed in transfected cells
T1 sequence (Q9Y210 1-931): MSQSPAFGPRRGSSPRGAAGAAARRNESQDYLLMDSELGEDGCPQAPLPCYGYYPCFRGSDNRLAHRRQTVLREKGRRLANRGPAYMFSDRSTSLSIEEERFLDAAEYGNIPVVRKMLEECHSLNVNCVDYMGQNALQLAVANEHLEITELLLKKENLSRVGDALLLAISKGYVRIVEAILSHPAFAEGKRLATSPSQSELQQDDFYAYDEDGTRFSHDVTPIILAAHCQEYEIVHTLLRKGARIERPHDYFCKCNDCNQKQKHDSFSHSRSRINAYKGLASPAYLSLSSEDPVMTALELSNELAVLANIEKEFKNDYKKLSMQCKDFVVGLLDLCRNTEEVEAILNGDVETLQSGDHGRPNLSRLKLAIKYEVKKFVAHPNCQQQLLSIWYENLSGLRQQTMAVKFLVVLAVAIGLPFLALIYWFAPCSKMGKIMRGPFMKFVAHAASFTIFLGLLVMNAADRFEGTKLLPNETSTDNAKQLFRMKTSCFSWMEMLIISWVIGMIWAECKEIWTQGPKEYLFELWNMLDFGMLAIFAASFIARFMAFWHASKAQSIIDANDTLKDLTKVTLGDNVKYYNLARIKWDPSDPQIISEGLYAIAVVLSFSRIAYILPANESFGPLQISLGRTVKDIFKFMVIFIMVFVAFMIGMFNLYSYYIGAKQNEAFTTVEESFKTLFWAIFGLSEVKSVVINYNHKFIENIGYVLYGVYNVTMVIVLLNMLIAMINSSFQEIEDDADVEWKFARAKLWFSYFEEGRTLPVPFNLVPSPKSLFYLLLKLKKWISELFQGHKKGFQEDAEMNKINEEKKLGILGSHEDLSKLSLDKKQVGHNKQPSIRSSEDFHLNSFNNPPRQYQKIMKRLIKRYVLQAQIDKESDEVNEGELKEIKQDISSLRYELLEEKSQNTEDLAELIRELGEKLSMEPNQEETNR
Description: TRPC6 calcium flux assay (FLIPR, OAG-stimulated calcium influx). It is filed as cell-based. The settings on record: HEK293 cells stably transfected with human TRPC6, read-out: hTRPC6 Potency. A digest of the protocol:
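HEK293 cells stably expressing human TRPC6, loaded with calcium dye 90–120 min at RT, then given compound for 25 min before OAG (50 uM final, 0.5% DMSO) in HEPES buffer pH 7.2 with 2 mM CaCl2. Background-subtracted FLIPR peak over 180 s normalized to OAG vs buffer; IC50 from dose plot.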
(In general: Calcium flux is commonly read through the fluorescence of an indicator in the cells.)
With `N#Cc1ccc(Cn2c(N3CC[C@H](CN)C3)nc3ccccc32)cc1` [Example 179, (R)-4-((2-(3-(aminomethyl)pyrrolidin-1-yl)-1H-benzo[d]imidazol-1-yl)methyl)benzonitrile], the IC50 stood at 326 nM. In the case of `C[C@H]1CCN(c2nc3ccccc3n2Cc2ccc(C#N)cc2)C[C@H]1N` [Example 180, 4-((2-((3S,4S)-3-amino-4-methylpiperidin-1-yl)-1H-benzo[d]imidazol-1-yl)methyl)benzonitrile 2,2,2-trifluoroacetate], the IC50 stood at 14.9 nM. To `C[C@@H]1CCN(c2nc3ccccc3n2Cc2ccc(C#N)cc2)C[C@H]1N` [Example 181, 4-((2-((3S,4R)-3-amino-4-methylpiperidin-1-yl)-1H-benzo[d]imidazol-1-yl)methyl)benzonitrile 2,2,2-trifluoroacetate] belongs 0.907 nM; to `C[C@H]1CCN(c2nc3ccccc3n2Cc2ccc(C#N)cc2)C[C@@H]1N` [Example 182, 4-((2-((3R,4S)-3-amino-4-methylpiperidin-1-yl)-1H-benzo[d]imidazol-1-yl)methyl)benzonitrile 2,2,2-trifluoroacetate], 314 nM; to `N#Cc1ccc(Cn2c(N3C[C@@H]4C[C@]4(CN)C3)nc3ccccc32)cc1` [Example 183, 4-((2-((1S,5R)-1-(aminomethyl)-3-azabicyclo[3.1.0]hexan-3-yl)-1H-benzo[d]imidazol-1-yl)methyl)benzonitrile], 655 nM. To `N#Cc1ccc(Cn2c(N3C[C@H]4C[C@@]4(CN)C3)nc3ccccc32)cc1` [Example 184, 4-((2-((1R,5S)-1-(aminomethyl)-3-azabicyclo[3.1.0]hexan-3-yl)-1H-benzo[d]imidazol-1-yl)methyl)benzonitrile] belongs 143 nM; to `COc1ccc2nc(N3CCC[C@@H](N)C3)n(Cc3ccc(C#N)cc3)c2c1` [Example 185, (R)-4-((2-(3-aminopiperidin-1-yl)-6-methoxy-1H-benzo[d]imidazol-1-yl)methyl)benzonitrile], 3.58 nM; to `COc1ccc2c(c1)nc(N1CCC[C@@H](N)C1)n2Cc1ccc(C#N)cc1` [Example 186, (R)-4-((2-(3-aminopiperidin-1-yl)-5-methoxy-1H-benzo[d]imidazol-1-yl)methyl)benzonitrile], 278 nM. For `N#Cc1ccc2nc(N3CC[C@@H](F)[C@H](N)C3)n(Cc3ncc(Cl)cn3)c2c1` [Example 187, 2-((3R,4R)-3-amino-4-fluoropiperidin-1-yl)-1-((5-chloropyrimidin-2-yl)methyl)-1H-benzo[d]imidazole-6-carbonitrile], the IC50 worked out at 1.59 nM. Regarding `N[C@@H]1CN(c2nc3ccccc3n2Cc2ncc(F)cn2)CC[C@H]1F` [Example 188, (3R,4R)-4-fluoro-1-(1-((5-fluoropyrimidin-2-yl)methyl)-1H-benzo[d]imidazol-2-yl)piperidin-3-amine], the IC50 was 13 nM. In the case of `N[C@@H]1CN(c2nc3ccccc3n2Cc2ccc(F)cn2)CC[C@H]1F` [Example 189, (3R,4R)-4-fluoro-1-(1-((5-fluoropyridin-2-yl)methyl)-1H-benzo[d]imidazol-2-yl)piperidin-3-amine], the IC50 is 3.59 nM.

Turning to `N#Cc1ccc2nc(N3CC[C@@H](F)[C@H](N)C3)n(Cc3ccc(F)cn3)c2c1` [Example 190, 2-((3R,4R)-3-amino-4-fluoropiperidin-1-yl)-1-((5-fluoropyridin-2-yl)methyl)-1H-benzo[d]imidazole-6-carbonitrile], the IC50 came out at 4.02 nM.

On to `N#Cc1ccc2c(c1)nc(N1CC[C@@H](F)[C@H](N)C1)n2Cc1ccc(F)cn1` [Example 191, 2-((3R,4R)-3-amino-4-fluoropiperidin-1-yl)-1-((5-fluoropyridin-2-yl)methyl)-1H-benzo[d]imidazole-5-carbonitrile], for which the IC50 worked out at 140 nM. To `N[C@@H]1CN(c2nc3ccccc3n2Cc2ncc(Br)cn2)CC[C@H]1F` [Example 192, (3R,4R)-1-(1-((5-bromopyrimidin-2-yl)methyl)-1H-benzo[d]imidazol-2-yl)-4-fluoropiperidin-3-amine] belongs 1.72 nM.
